Read-outs that look alike come from different tables or passages of the source.
Legend:
[1] = molecular target: T1, rat GPR14 (U-II receptor) (Rattus norvegicus, UniProt P49684); assay: Calcium flux assay (FLIPR); assay type: cell-based; conditions: Inhibition of acetyl-cyclic[Cys-Phe-Trp-Lys-(2-Nal)-Cys]-NH2 (1 nM) induced Ca2+ mobilization (FLIPR) in CHO cells transfected with rat UII receptor; 5 min incubation
T1 construct: expressed in transfected cells
T1 sequence (P49684 1-386): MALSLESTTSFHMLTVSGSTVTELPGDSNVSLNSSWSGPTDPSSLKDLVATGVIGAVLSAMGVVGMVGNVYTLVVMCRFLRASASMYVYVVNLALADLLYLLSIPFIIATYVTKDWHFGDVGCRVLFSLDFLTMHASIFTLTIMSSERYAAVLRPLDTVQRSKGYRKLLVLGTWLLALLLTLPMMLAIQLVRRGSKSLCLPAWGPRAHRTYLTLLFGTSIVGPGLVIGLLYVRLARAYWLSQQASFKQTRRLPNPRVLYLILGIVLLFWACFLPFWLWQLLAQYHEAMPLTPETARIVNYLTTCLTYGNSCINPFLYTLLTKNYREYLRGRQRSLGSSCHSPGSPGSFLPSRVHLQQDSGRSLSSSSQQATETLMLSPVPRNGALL
How it was run: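 Stable CHO cell line expressing cloned rat U-II receptor, seeded 24 h before assay, loaded with FLIPR calcium dye in HBSS/20 mM HEPES/0.1% BSA/2.5 mM probenecid, pH 7.4, for 1 hr at 37° C. Calcium mobilization read at room temperature (23° C.).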

Human UII receptors = molecular target: T2, Human UII receptors (Homo sapiens, UniProt Q9UKP6); assay: Human radioligand binding assay, (125I)-U-II on HSMM; conditions: 0.150 nM (125I)-U-II, intact Human Skeletal Muscle Myoblasts, 3 hrs, 25° C.; read-out: Ki
T2 construct: host or cells: Human Skeletal Muscle Myoblasts (HSMM), intact adherent cells
T2 sequence (Q9UKP6 1-389): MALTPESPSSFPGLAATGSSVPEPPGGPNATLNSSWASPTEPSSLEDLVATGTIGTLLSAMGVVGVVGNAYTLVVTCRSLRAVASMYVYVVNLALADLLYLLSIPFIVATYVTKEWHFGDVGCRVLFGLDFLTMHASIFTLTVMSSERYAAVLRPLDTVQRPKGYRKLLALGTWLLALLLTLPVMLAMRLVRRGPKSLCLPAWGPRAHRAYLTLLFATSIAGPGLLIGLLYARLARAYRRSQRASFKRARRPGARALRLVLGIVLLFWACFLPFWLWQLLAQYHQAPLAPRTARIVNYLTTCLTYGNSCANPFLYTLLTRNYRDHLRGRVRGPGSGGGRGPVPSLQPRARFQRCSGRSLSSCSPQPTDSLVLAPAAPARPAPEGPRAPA
Method: Human Skeletal Muscle Myoblasts (HSMM) were obtained from Cambrex, and were cultured according to manufacturer's instruction. Cell viability was examined by trypan blue exclusion. Cells at less than 4 passages were used in all studies. […] The binding medium used was Dulbecco's modified Eagle's medium (DMEM) containing 2 mg/ml BSA and 25 mM HEPES (pH 7.4). […] The cells were washed 4× with the binding medium and solubilized in 1% SDS and 0.5 N NaOH. Radioactivity was quantified by gamma counting.

[2] = test system: streptozotocin-induced diabetic rats; conditions: long-term treatment; cited from earlier work
isolated arterial rings [3] = conditions: rats; read-out: EC50, contraction of isolated arterial rings; cited from earlier work
isolated arterial rings [4] = conditions: humans; read-out: EC50, contraction of isolated arterial rings; cited from earlier work
[5] = molecular target: T1, rat GPR14 (U-II receptor); conditions: agonist; calcium mobilization; read-out: FLIPR EC50; cited from earlier work
[6] = molecular target: T3, (Rattus norvegicus, UniProt P49684); conditions: read-out: rU-II Ki; cited from earlier work
T3 sequence (P49684 1-386): T1 sequence (P49684 1-386)

For CN(C)C(=O)C1(c2ccc(Cl)cc2)CCN(CCN2C(=O)CCc3ccccc32)CC1, the melting point was 243 to 245 °C.
For CC(C)(C)OC(=O)N1CCN(CCNC(=O)c2ccccc2C2CC3CCC(C2)N3CCN2C(=O)COc3ccccc32)CC1 (centres unmarked) [Cpd 99, 4-[2-(2-{8-[2-(3-oxo-2,3-dihydro-benzo[1,4]oxazin-4-yl)-ethyl]-8-aza-bicyclo[3.2.1]oct-3-yl}-benzoylamino)-ethyl]-piperazine-1-carboxylic acid tert-butyl ester], the IC50 [1] was 1100 nM and the Ki (Human UII receptors) was 1400 nM.
With CC(C)(C)OC(=O)NCCCCCNC(=O)c1cc(Cl)ccc1C1CC2CCC(C1)N2CCN1C(=O)COc2ccccc21 (centres unmarked) [Cpd 100, [5-(5-chloro-2-{8-[2-(3-oxo-2,3-dihydro-benzo[1,4]oxazin-4-yl)-ethyl]-8-aza-bicyclo[3.2.1]oct-3-yl}-benzoylamino)-pentyl]-carbamic acid tert-butyl ester] the IC50 [1] was 450 nM and the Ki (Human UII receptors) was 1200 nM.
In the case of Cc1cc(NC(=O)NCCN2CCC(O)(Cc3ccccc3)CC2)c2ccccc2n1 [palosuran], the “development of proteinuria and renal damage” value [2] is given as “delayed the development of proteinuria and renal damage”, the “glycemia, glycosylated hemoglobin, and serum lipids” value [2] is given as “slowed the increase in glycemia, glycosylated hemoglobin, and serum lipids” and the insulin [2] is given as “increased insulin”. For the same molecule, the renal blood flow [2] was “increased renal blood flow” and the survival [2] was “improved survival”.
For “AGTAD-cyclo(CFWKYC)-V [Goby U-II, Urotensin-II isolated from the urophysis of the goby fish as a 12-mer]”, the EC50 (isolated arterial rings [3]) is given as under 1 nM and the EC50 (isolated arterial rings [4]) is given as under 1 nM.
In the case of “acetyl-cyclic[Cys-Phe-Trp-Lys-(2-Nal)-Cys]-NH2 [(Ac)-CFWK(2-NaI)C—NH2, agonist cyclic peptide used to induce Ca2+ mobilization in the FLIPR assay]”, the EC50 [5] is given as 0.54 ± 0.2 nM and the Ki [6] is given as 0.12 ± 0.05 nM.

From patent US8759342B2, “Benzo[1,4]oxazin-3-one, benzo[1,4]thiazin-3-one and quinolin-2-one urotensin II receptor antagonists” (Janssen Pharmaceutica NV, priority 2006, dated 2014)
